Where “and” joins values, the source holds several entries; their conditions need not be identical. Identical values can stand only once. Inconclusive results and toxic doses are left out.
Tested on: L1210 leukemia ip in BDF1 mice, survival T/C
Assay: NCI In Vivo Anticancer Drug Screen. Data for tumor model L1210 Leukemia (intraperitoneal) in B6D2F1 (BDF1) mice
Settings: endpoint: mean survival time, higher = longer survival
Summary of the method: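 Transplanted-tumor mice were given test agent; controls received vehicle only. Survival readings from the two groups were divided (treated over control).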

[1] = dose: 100.0 mg/kg/injection, schedule: Q04DX003 (ip), vehicle: acetone
[2] = dose: 100.0 mg/kg/injection, schedule: Q04DX002 (ip), vehicle: Klucel (hydroxypropylcellulose) (HPC)
[3] = dose: 200.0 mg/kg/injection, schedule: Q04DX002 (ip), vehicle: Klucel (hydroxypropylcellulose) (HPC)
[4] = dose: 400.0 mg/kg/injection, schedule: Q04DX002 (ip), vehicle: Klucel (hydroxypropylcellulose) (HPC)
[5] = dose: 50.0 mg/kg/injection, schedule: Q01DX001 (ip), vehicle: Klucel (hydroxypropylcellulose) (HPC)
[6] = dose: 100.0 mg/kg/injection, schedule: Q04DX003 (ip), vehicle: Klucel (hydroxypropylcellulose) (HPC)
[7] = dose: 200.0 mg/kg/injection, schedule: Q04DX003 (ip), vehicle: Klucel (hydroxypropylcellulose) (HPC)
[8] = dose: 400.0 mg/kg/injection, schedule: Q04DX003 (ip), vehicle: Klucel (hydroxypropylcellulose) (HPC)
[9] = dose: 100.0 mg/kg/injection, schedule: Q01DX009 (ip), vehicle: saline with Tween-80
[10] = dose: 100.0 mg/kg/injection, schedule: Q04DX003 (ip), vehicle: saline with Tween-80
[11] = dose: 200.0 mg/kg/injection, schedule: Q01DX009 (ip), vehicle: saline with Tween-80
[12] = dose: 200.0 mg/kg/injection, schedule: Q04DX003 (ip), vehicle: saline with Tween-80
[13] = dose: 100.0 mg/kg/injection, schedule: Q01DX001 (ip), vehicle: saline
[14] = dose: 200.0 mg/kg/injection, schedule: Q01DX001 (ip), vehicle: saline
[15] = dose: 400.0 mg/kg/injection, schedule: Q01DX001 (ip), vehicle: saline
[16] = dose: 100.0 mg/kg/injection, schedule: Q04DX003 (ip), vehicle: saline
[17] = dose: 200.0 mg/kg/injection, schedule: Q04DX003 (ip), vehicle: saline
[18] = dose: 100.0 mg/kg/injection, schedule: Q01DX009 (ip), vehicle: Klucel (hydroxypropylcellulose) (HPC)
[19] = dose: 200.0 mg/kg/injection, schedule: Q01DX009 (ip), vehicle: Klucel (hydroxypropylcellulose) (HPC)
[20] = dose: 400.0 mg/kg/injection, schedule: Q01DX009 (ip), vehicle: Klucel (hydroxypropylcellulose) (HPC)

Structure (SMILES): COC(=O)C1CN(S(=O)(=O)c2ccccc2)c2ccccc2N1S(=O)(=O)c1ccccc1 (centres undefined)
- T/C [1]: 95 % of control
- T/C (dose: 200.0 mg/kg/injection, schedule: Q04DX003 (ip), vehicle: acetone): 100 % of control
- T/C (dose: 400.0 mg/kg/injection, schedule: Q04DX003 (ip), vehicle: acetone): 94 % of control

Structure (SMILES): O=c1oc2ccc3ccccc3c2cc1-c1nc2ccccc2[nH]1
- T/C [2]: 95 % of control
- T/C [3]: 91 % of control
- T/C [4]: 110 % of control

Structure (SMILES): O=NN(CCCl)C(=O)NC1(C(=O)O)CCCC1
- T/C (dose: 15.0 mg/kg/injection, schedule: Q01DX001 (ip), vehicle: saline with Tween-80): 109 % of control
- T/C (dose: 23.0 mg/kg/injection, schedule: Q01DX001 (ip), vehicle: saline with Tween-80): 113 % of control
- T/C [5]: 121 % of control
- T/C (dose: 75.0 mg/kg/injection, schedule: Q01DX001 (ip), vehicle: Klucel (hydroxypropylcellulose) (HPC)): 172 % of control
- T/C (dose: 75.0 mg/kg/injection, schedule: Q01DX001 (ip), vehicle: carboxymethylcellulose (CMC)): 162 % of control
- T/C (dose: 80.0 mg/kg/injection, schedule: Q01DX001 (ip), vehicle: saline with Tween-80): 152 % of control
- T/C (dose: 112.0 mg/kg/injection, schedule: Q01DX001 (ip), vehicle: Klucel (hydroxypropylcellulose) (HPC)): 243 % of control
- T/C (dose: 112.0 mg/kg/injection, schedule: Q01DX001 (ip), vehicle: carboxymethylcellulose (CMC)): 168 % of control
- T/C (dose: 119.0 mg/kg/injection, schedule: Q01DX001 (ip), vehicle: saline with Tween-80): 252 % of control
- T/C (dose: 168.0 mg/kg/injection, schedule: Q01DX001 (ip), vehicle: Klucel (hydroxypropylcellulose) (HPC)): 310 % of control
- T/C (dose: 168.0 mg/kg/injection, schedule: Q01DX001 (ip), vehicle: carboxymethylcellulose (CMC)): 272 % of control
- T/C (dose: 178.0 mg/kg/injection, schedule: Q01DX001 (ip), vehicle: saline with Tween-80): 274 % of control
- T/C (dose: 252.0 mg/kg/injection, schedule: Q01DX001 (ip), vehicle: Klucel (hydroxypropylcellulose) (HPC)): 106 % of control
- T/C (dose: 252.0 mg/kg/injection, schedule: Q01DX001 (ip), vehicle: carboxymethylcellulose (CMC)): 89 % of control
- T/C (dose: 266.0 mg/kg/injection, schedule: Q01DX001 (ip), vehicle: saline with Tween-80): 246 % of control

Structure (SMILES): CC(C(=O)c1ccccc1)C(O)(C(F)(F)Cl)C(F)(F)Cl (centres undefined)
- T/C [6]: 91 % of control
- T/C [7]: 91 % of control
- T/C [8]: 91 % of control

Structure (SMILES): CCOC(=O)c1ccc(NC(=O)Nc2cccc3c(O)cccc23)cc1
- T/C (dose: 50.0 mg/kg/injection, schedule: Q04DX003 (ip), vehicle: saline with Tween-80): 102 % of control
- T/C (dose: 100.0 mg/kg/injection, schedule: Q01DX001 (ip), vehicle: saline with Tween-80): 86 % of control
- T/C [9]: 86 % of control
- T/C (dose: 100.0 mg/kg/injection, schedule: Q04DX002 (ip), vehicle: saline with Tween-80): 97 % of control and 106 % of control
- T/C [10]: 94 % of control
- T/C (dose: 200.0 mg/kg/injection, schedule: Q01DX001 (ip), vehicle: saline with Tween-80): 86 % of control
- T/C [11]: 89 % of control
- T/C (dose: 200.0 mg/kg/injection, schedule: Q04DX002 (ip), vehicle: saline with Tween-80): 97 % of control and 91 % of control
- T/C [12]: 93 % of control and 87 % of control
- T/C (dose: 400.0 mg/kg/injection, schedule: Q01DX009 (ip), vehicle: saline with Tween-80): 89 % of control
- T/C (dose: 400.0 mg/kg/injection, schedule: Q04DX002 (ip), vehicle: saline with Tween-80): 89 % of control and 91 % of control
- T/C (dose: 400.0 mg/kg/injection, schedule: Q04DX003 (ip), vehicle: saline with Tween-80): 97 % of control

Structure (SMILES): CN(C=O)c1cc([N+](=O)[O-])ccc1OCc1ccccc1
- T/C (dose: 50.0 mg/kg/injection, schedule: Q01DX001 (ip), vehicle: saline): 100 % of control
- T/C [13]: 96 % of control
- T/C [14]: 92 % of control
- T/C [15]: 94 % of control

Structure (SMILES): C/C(=C\n1ccccc1=N)C(=O)c1ccc(F)cc1
- T/C [6]: 96 % of control
- T/C [7]: 98 % of control
- T/C [8]: 100 % of control

Structure (SMILES): C1=CC2CC1C1CSCC21 (centres undefined)
- T/C (dose: 0.34 mg/kg/injection, schedule: Q01DX009 (ip), vehicle: saline): 102 % of control
- T/C (dose: 0.51 mg/kg/injection, schedule: Q01DX009 (ip), vehicle: saline): 107 % of control
- T/C (dose: 0.78 mg/kg/injection, schedule: Q01DX009 (ip), vehicle: saline): 98 % of control
- T/C (dose: 1.56 mg/kg/injection, schedule: Q04DX003 (ip), vehicle: saline): 97 % of control
- T/C (dose: 3.12 mg/kg/injection, schedule: Q04DX003 (ip), vehicle: saline): 94 % of control

Structure (SMILES): O=C(Nc1c(Cl)c(Cl)c2c(c1Cl)Cc1cc(Cl)ccc1-2)C(Cl)Cl
- T/C (dose: 100.0 mg/kg/injection, schedule: Q01DX001 (ip), vehicle: carboxymethylcellulose (CMC)): 101 % of control
- T/C (dose: 200.0 mg/kg/injection, schedule: Q01DX001 (ip), vehicle: carboxymethylcellulose (CMC)): 101 % of control
- T/C (dose: 400.0 mg/kg/injection, schedule: Q01DX001 (ip), vehicle: carboxymethylcellulose (CMC)): 106 % of control

Structure (SMILES): CCCCCCCCCCCCOc1ccccc1
- T/C (dose: 50.0 mg/kg/injection, schedule: Q01DX009 (ip), vehicle: saline with Tween-80): 97 % of control
- T/C [9]: 92 % of control
- T/C [10]: 88 % of control
- T/C [11]: 109 % of control
- T/C [12]: 92 % of control

Structure (SMILES): CC(C)(C)N=C(N)N[N+](=O)[O-]
- T/C (dose: 50.0 mg/kg/injection, schedule: Q04DX002 (ip), vehicle: Klucel (hydroxypropylcellulose) (HPC)): 104 % of control
- T/C [2]: 100 % of control
- T/C [3]: 104 % of control

Structure (SMILES): Nc1ccc(Nc2cc(S(=O)(=O)O)c(N)c3c2C(=O)c2ccccc2C3=O)cc1
- T/C [13]: 97 % of control
- T/C [15]: 93 % of control

Structure (SMILES): O=c1cc(CN2CCN(CCO)CC2)[nH]c(=O)[nH]1
- T/C [16]: 101 % of control
- T/C [17]: 95 % of control
- T/C (dose: 400.0 mg/kg/injection, schedule: Q04DX003 (ip), vehicle: saline): 95 % of control

Structure (SMILES): COc1ccc2c(c1)C(C)(C)N(C)CC2
- T/C [1]: 104 % of control

Structure (SMILES): Fc1ccc(NC(=S)Nc2ccccc2)cc1
- T/C [2]: 108 % of control
- T/C [3]: 116 % of control
- T/C [4]: 97 % of control

Structure (SMILES): O=C(NCCBr)Nc1cccc2c1Cc1ccccc1-2
- T/C [18]: 105 % of control
- T/C [6]: 95 % of control
- T/C [19]: 96 % of control
- T/C [7]: 95 % of control
- T/C [20]: 94 % of control
- T/C [8]: 97 % of control

Structure (SMILES): CC(=Nc1cc(C)c(C)cc1C)c1c(O)cc(C)oc1=O
- T/C [18]: 93 % of control
- T/C [2]: 98 % of control
- T/C [19]: 98 % of control
- T/C [3]: 98 % of control
- T/C [20]: 87 % of control
- T/C [4]: 98 % of control

Structure (SMILES): NC(=S)N/N=C/c1ccncc1
- T/C (dose: 50.0 mg/kg/injection, schedule: Q01DX009 (ip), vehicle: saline): 96 % of control
- T/C (dose: 100.0 mg/kg/injection, schedule: Q01DX009 (ip), vehicle: saline): 98 % of control
- T/C [16]: 96 % of control
- T/C (dose: 200.0 mg/kg/injection, schedule: Q01DX009 (ip), vehicle: saline): 93 % of control
- T/C [17]: 91 % of control

Structure (SMILES): COC(=O)C(=Cc1ccccc1)C(=O)OC
- T/C [2]: 95 % of control
- T/C [3]: 95 % of control
- T/C [4]: 92 % of control

Structure (SMILES): Cc1cccc(N=C(N)N=C(N)N)c1
- T/C [10]: 102 % of control
- T/C [12]: 88 % of control

Structure (SMILES): Cc1cc2c3ccccc3c3ccccc3c2nn1
- T/C [13]: 103 % of control
- T/C [14]: 101 % of control
- T/C [15]: 100 % of control

Structure (SMILES): Nc1cc(OCc2ccccc2)ncn1
- T/C (dose: 25.0 mg/kg/injection, schedule: Q01DX001 (ip), vehicle: Klucel (hydroxypropylcellulose) (HPC)): 103 % of control
- T/C [5]: 109 % of control
- T/C (dose: 100.0 mg/kg/injection, schedule: Q01DX001 (ip), vehicle: Klucel (hydroxypropylcellulose) (HPC)): 97 % of control

Structure (SMILES): CCOC(=O)C1=C(C)NC(=O)NC1c1ccc(N(CCCl)CCCl)cc1Cl (centres undefined)
- T/C (dose: 25.0 mg/kg/injection, schedule: Q01DX009 (ip), vehicle: Klucel (hydroxypropylcellulose) (HPC)): 102 % of control
- T/C (dose: 50.0 mg/kg/injection, schedule: Q01DX009 (ip), vehicle: Klucel (hydroxypropylcellulose) (HPC)): 98 % of control
- T/C [18]: 111 % of control

— PubChem BioAssay AID248 (DTP/NCI, 2004)
